This is an account of results in patent EP0935965A1, “ANTIPYLORI AGENT” (TORAY INDUSTRIES, INC., priority 1996, dated 1997).

Where a SMILES comes first, the peptide text is derived from it.

In the assay the test system is acetic acid ulcer. In words: Healing accelerating action on acetic acid ulcer of rat. The class given is in vivo, Sprague Dawle rats. On the procedure: 15 Sprague Dawle rats each having a weight of about 220 g were used, and a gastric ulcer was experimentally formed in each of the rats. A gastric ulcer was formed by exposing the gastric anterior wall of each of the rats by ventrotomy under etherization, and injecting 0.03 ml of 20% acetic acid into the submucous layer in the boundary between the fundus glands and the pyloric glands of the gastric anterior wall by a Hamilton microsyringe in accordance with the method of Okabe et al., closing the stomach, and then feeding for 7 days in a normal manner.
On the seventh day, five rats were sacrificially killed, and the stomachs were extracted therefrom. The residual 10 rats were divided into two groups consisting of 5 rats each and used as a control group administered with physiologic saline and an experimental group administered with PR-39.
The rats in the control group and the experimental group were intraperitoneally administered with 1 ml of physiologic saline and 0.8 mg/ml of PR-39, respectively, once a day. After administration of physiologic saline or PR-39 for 7 days, the stomach was extracted from each of the rats on the day after final administration (14 days after acetic acid administration).
In each of the extracted stomachs, the pyloric ring and the esophagogastric junction were clamped, and 10 ml of 70% alcohol was injected into the stomach, followed by fixing. The stomach was cut along the curvatura ventriculi major to expose the gastric mucosal surface, and the gastric ulcer formed was visually observed to measure the surface area thereof.
Successively, a central portion of the gastric ulcer was cut out in parallel to the curvatura ventriculi minor, embedded in paraffin, and then stained with HE to histologically examine the formed gastric ulcer.
The examination terms included the length of each of the gastric ulcer, and the thickness of the granulation of the ulcer bottom thereof.

[1] abbreviates: 14 days after acetic acid, histological observation, PR-39 0.8 mg/ml intraperitoneally once a day for 7 days.

For the molecule `CC[C@H](C)[C@H](NC(=O)[C@H](CCCNC(=N)N)NC(=O)[C@@H]1CCCN1C(=O)[C@@H]1CCCN1C(=O)[C@H](CC(C)C)NC(=O)[C@H](CCCNC(=N)N)NC(=O)[C@@H]1CCCN1C(=O)[C@@H]1CCCN1C(=O)[C@H](Cc1ccccc1)NC(=O)[C@H](Cc1ccccc1)NC(=O)[C@@H]1CCCN1C(=O)[C@@H]1CCCN1C(=O)[C@@H]1CCCN1C(=O)[C@H](CCCNC(=N)N)NC(=O)[C@@H]1CCCN1C(=O)[C@H](CCCNC(=N)N)NC(=O)[C@@H]1CCCN1C(=O)[C@H](CC(C)C)NC(=O)[C@H](Cc1ccc(O)cc1)NC(=O)[C@@H]1CCCN1C(=O)[C@@H]1CCCN1C(=O)[C@H](CCCNC(=N)N)NC(=O)[C@@H]1CCCN1C(=O)[C@H](CCCNC(=N)N)NC(=O)[C@H](CCCNC(=N)N)NC(=O)[C@@H](N)CCCNC(=N)N)C(=O)N1CCC[C@H]1C(=O)N1CCC[C@H]1C(=O)NCC(=O)N[C@@H](Cc1ccccc1)C(=O)N1CCC[C@H]1C(=O)N1CCC[C@H]1C(=O)N[C@@H](CCCNC(=N)N)C(=O)N[C@@H](Cc1ccccc1)C(=O)N1CCC[C@H]1C(=O)N1CCC[C@H]1C(=O)N[C@@H](CCCNC(=N)N)C(=O)N[C@@H](Cc1ccccc1)C(=O)N1CCC[C@H]1C(N)=O` [PR-39, proline arginine rich peptide-39] (H-RRRPRPPYLPRPRPPPFFPPRLPPRIPPGFPPRFPPRFP-NH2; N-terminus and C-terminus assumed), for the setting “14 days after acetic acid, PR-39 0.8 mg/ml intraperitoneally once a day for 7 days”, the Ulcer surface area is 2.82 ± 1.96 mm2; average±SEM. The “visual observation of gastric mucosa” value (14 days after acetic acid, compared with the control group (physiologic saline)) is reported as “ulcer scar accompanied with concentration of the mucosal folds of gallbladder was observed”. Under setting [1], the Diameter of ulcer came to 1.58 ± 0.49 mm and the “Thickness of granulation tissue” value is on record as 1.39 ± 0.59 mm. In addition, the “ulcer area as compared with the control group” value (PR-39 administered every day in the healing stage (7th to 14th day)) was “significantly decreased”. Also, the “thickness of granulation at the ulcer bottom” value (PR-39 administration) is on record as “significantly decreased”. The “length of an ulcer (histological observation)” value (PR-39 administration group) is “significantly decreased”.
